Values belong to the compound of their own block, whether it stands above or below them.
Assay: clinical
Procedure: For group A, the dosing regimen was aspirin + clopidogrel + placebo or SHR2285 200 mg. Specifically, aspirin: 100 mg was taken orally every morning from day 1 to day 6; clopidogrel: 300 mg in the morning of the first day, 75 mg in the morning of the second day to the sixth day; placebo or SHR2285 (1:3): 200 mg orally every morning and evening until the morning of the sixth day.
For group B, the dosing regimen was aspirin + clopidogrel + placebo or SHR2285 300 mg. The use of aspirin and clopidogrel was the same as that of group A; Placebo or SHR2285: added the amount to 300 mg based on group A.
For group C, the administration regimen was aspirin + ticagrelor + placebo or SHR2285 300 mg. The use of aspirin, placebo or SHR2285 was the same as that in group B. Clopidogrel in group B was adjusted to ticagrelor: 180 mg orally in the morning of the first day, 90 mg in the morning and evening from the second day to the morning of the sixth day.
PK blood collection points: the blood of each group was collected in the morning of day 1 before administration (within 1 h before administration), 4 h and 12 h after administration (before administration in the evening); in the morning of day 3, day 4, and day 5 before administration (within 1 h before administration), within 1 h before administration on the morning of the sixth day, and 0.5 h, 1 h, 1.5 h, 2 h, 2.5 h, 3 h, 4 h, 5 h, 6 h, 8 h, 10 h, 12 h, 15 h, 24 h, 36 h, and 48 h after administration. About 7 ml of venous blood was collected, and the plasma was collected for concentration determination of aspirin and its active metabolites (salicylic acid) and clopyridine (group A, group B), ticagrelor and its active metabolite AR-C124910XX (group C), SHR2285 and its active metabolite SHR164471.
Based on the actual sampling time, the PK parameters of each component were calculated as a non-compartmental model by WinNonlin (Certara United States Inc, version 8.1). The pharmacokinetic parameters after multiple administrations were investigated: Cmax, AUCtau, AUC0-last, AUC0-inf, Tmax, t1/2, CLss/F, Vss/F, Ctrough and Caverage. The main pharmacokinetic parameters such as AUC0-last, AUC0-inf and Cmax were tabulated and summarized by descriptive statistics.
After logarithmic conversion, the AUCss and Cmax of each component in the SHR2285 group (aspirin + clopidogrel/ticagrelor + SHR2285) and placebo group (aspirin + clopidogrel/ticagrelor + placebo) were statistically analyzed by ANOVA model. The medication group was used as the independent variable. The geometric mean ratio of the corresponding PK parameter (SHR2285/placebo group) and the estimated value of its 90% confidence interval was obtained by taking the exponential conversion from the mean difference estimated by the model (SHR2285 group-placebo group) and its 90% confidence interval. SHR2285 and its metabolite SHR164471, aspirin/salicylic acid, clopidogrel, ticagrelor and its metabolite AR-C124910XX were determined by Frontage Laboratories Co., Ltd. (Shanghai, China) using high-performance liquid chromatography-tandem mass spectrometry (HPLC-MS, Sciex API 4000). The chromatographic column is WATERS CORTECS®T3 (50 mm × 4.6 mm, id 2.7 μm), column temperature is set at 40°C. Mobile phase A is ultrapure water (containing 0.1% formic acid), and mobile phase B is acetonitrile/water (90:10, containing 0.1% formic acid). The elution gradient is: 0–0.4 min, A-B (50:50), 0.4–0.8 min, A-B (5:95), 0.8–2 min, A-B (5:95), 2–2.4 (50:50), 2.4–3.5 min, A-B (50:50). The total time was 3.5 min and the flow rate was 1.0 ml/min. The ion source was ESI source at positive ion mode. The heating capillary temperature was 400°C; CAD was nine; curtain gas was 30; GS1 (N2) was 50; GS2 (N2) was 50; The method used was multiple reaction monitoring (MRM), and the ion reactions used for quantitative analysis were m/z 545.1→408.0 (SHR2285) and m/z 721.2→408.1 (SHR164471), respectively.

[1] = Placebo (C) n=8: aspirin + ticagrelor + placebo, day 6
[2] = SHR2285 (C) n=12: aspirin + ticagrelor + SHR2285 300 mg bid, day 6

Tmax (human, in vivo): one to 1.5
Compound: COC(=O)[C@H](c1ccccc1Cl)N1CCc2sccc2C1 [Clopidogrel, clopidogrel]

GLSMR of AUCtau (SHR2285 group/placebo group) (human, in vivo): 0.929
GLSMR of Cmax (SHR2285 group/placebo group) (human, in vivo): 1.06
Tmax (human, in vivo, Tmax): 1.5 to 1.75 h
steady state in plasma (in vivo): reached a steady state
Compound: CCCSc1nc(N[C@@H]2C[C@H]2c2ccc(F)c(F)c2)c2nnn([C@@H]3C[C@H](OCCO)[C@@H](O)[C@H]3O)c2n1 [Ticagrelor, ticagrelor]

AUCtau [1]: 2490(38.3) h*ng/mL
Cmax [1]: 389(35.4) ng/ml
Tmax (Placebo (C) n=8: aspirin + ticagrelor + placebo, day 6, median (range)): 1.5(1.0-2.5) h
AUCtau [2]: 2280(26.4) h*ng/mL
Cmax [2]: 367(28.1) ng/ml
Tmax (SHR2285 (C) n=12: aspirin + ticagrelor + SHR2285 300 mg bid, day 6, median (range)): 1.75(1.5-2.5) h
steady state in plasma (group C, six days after administration of ticagrelor): reached a steady state
Tmax (range across SHR2285 and placebo groups, day 6): 1.5 to 1.75 h
Compound: CCCSc1nc(N[C@@H]2C[C@H]2c2ccc(F)c(F)c2)c2nnn([C@@H]3C[C@H](O)[C@@H](O)[C@H]3O)c2n1 [AR-C124910XX]

From article PMC9626527, “SHR2285, the first selectively oral FXIa inhibitor in China: Safety, tolerability, pharmacokinetics and pharmacodynamics combined with aspirin, clopidogrel or ticagrelor” (Frontiers in Pharmacology, 2022)
